Laboratory results published in ChEMBL document CHEMBL1201862, “PubChem BioAssay data set” (2004).
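Exposure lasted 48 hours, with cells grown in 96-well plates and compounds tested at five concentrations. GI50 is the concentration that inhibits growth by half.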 Calls of active or inactive are those of the source. Rule as the data show it: active = GI50 up to about 1.1 µM and inactive = higher.

Key:
Assay in all cases: NCI tumour cell line growth inhibition, 48 h
ACHN = test system: ACHN
CAKI-1 = test system: CAKI-1
HCT-15 = test system: HCT-15
HL-60 = test system: HL-60
HOP-92 = test system: HOP-92
K562 = test system: K562
NCI-H460 = test system: NCI-H460
NCI-H522 = test system: NCI-H522
SF-295 = test system: SF-295
SF-539 = test system: SF-539
SK-MEL-2 = test system: SK-MEL-2
SW-620 = test system: SW-620
U-251 = test system: U-251
UACC-257 = test system: UACC-257
UO-31 = test system: UO-31
CCRF-CEM = test system: CCRF-CEM

COCN1COCN/C1=N\C#N
GI50 (ACHN): > 100 µM (inactive) | GI50 (CAKI-1): > 100 µM (inactive) | GI50 (HCT-15): 51.8 µM | GI50 (HL-60): > 100 µM (inactive) | GI50 (HOP-92): > 100 µM (inactive) | GI50 (K562): 88.3 µM (inactive) | GI50 (NCI-H460): > 100 µM (inactive) | GI50 (NCI-H522): > 100 µM (inactive) | GI50 (SF-295): > 100 µM (inactive) | GI50 (SF-539): > 100 µM (inactive) | GI50 (SK-MEL-2): > 100 µM (inactive) | GI50 (SW-620): 22.5 µM (inactive) | GI50 (U-251): > 100 µM (inactive) | GI50 (UACC-257): > 100 µM (inactive) | GI50 (UO-31): > 100 µM (inactive)

CC(Oc1ccc(OCC2CCCCC2)cc1)C(=O)NCc1ccco1 (stereo not given)
GI50 (ACHN): 36.1 µM (inactive) | GI50 (CCRF-CEM): 41 µM (inactive) | GI50 (HCT-15): 48.1 µM | GI50 (HL-60): 31.5 µM (inactive) | GI50 (K562): 42.3 µM (inactive) | GI50 (NCI-H460): 48.1 µM (inactive) | GI50 (NCI-H522): 18.4 µM (inactive) | GI50 (SF-539): 37.7 µM (inactive) | GI50 (SK-MEL-2): 21 µM (inactive) | GI50 (U-251): 36.6 µM (inactive) | GI50 (UACC-257): 23.6 µM (inactive) | GI50 (UO-31): 28.3 µM (inactive)

O=C1CC(c2c(-c3ccccc3)[nH]c3ccccc23)C(=O)N1 (stereo not given)
GI50 (ACHN): > 100 µM (inactive) | GI50 (CAKI-1): 71.9 µM (inactive) | GI50 (CCRF-CEM): > 100 µM (inactive) | GI50 (HCT-15): > 100 µM | GI50 (HL-60): > 100 µM (inactive) | GI50 (K562): > 100 µM (inactive) | GI50 (NCI-H460): > 100 µM (inactive) | GI50 (SF-295): > 100 µM (inactive) | GI50 (SF-539): > 100 µM (inactive) | GI50 (SK-MEL-2): > 100 µM (inactive) | GI50 (SW-620): > 100 µM (inactive) | GI50 (U-251): > 100 µM (inactive) | GI50 (UACC-257): > 100 µM (inactive) | GI50 (UO-31): 76.6 µM (inactive)

CN1C(=O)N(C)C(N2CCCC2)c2c1nc1ccccn1c2=O (stereo not given)
GI50 (ACHN): > 100 µM (inactive) | GI50 (CCRF-CEM): 37.6 µM (inactive) | GI50 (HCT-15): 56.6 µM | GI50 (HL-60): 36.8 µM (inactive) | GI50 (HOP-92): 42.7 µM (inactive) | GI50 (K562): 53.1 µM (inactive) | GI50 (NCI-H460): 76.4 µM (inactive) | GI50 (NCI-H522): 61 µM (inactive) | GI50 (SF-295): > 100 µM (inactive) | GI50 (SF-539): 33.3 µM (inactive) | GI50 (SK-MEL-2): 29.7 µM (inactive) | GI50 (SW-620): 60.5 µM (inactive) | GI50 (U-251): 70.5 µM (inactive) | GI50 (UACC-257): 50.7 µM (inactive) | GI50 (UO-31): > 100 µM (inactive)

COC(=O)C(=O)Cc1nc2ccccc2s1
GI50 (ACHN): > 100 µM (inactive) | GI50 (CAKI-1): > 100 µM (inactive) | GI50 (CCRF-CEM): > 100 µM (inactive) | GI50 (HCT-15): > 100 µM | GI50 (HL-60): > 100 µM (inactive) | GI50 (HOP-92): > 100 µM (inactive) | GI50 (K562): > 100 µM (inactive) | GI50 (NCI-H522): > 100 µM (inactive) | GI50 (SF-295): > 100 µM (inactive) | GI50 (SF-539): > 100 µM (inactive) | GI50 (SK-MEL-2): > 100 µM (inactive) | GI50 (SW-620): > 100 µM (inactive) | GI50 (U-251): > 100 µM (inactive) | GI50 (UACC-257): > 100 µM (inactive) | GI50 (UO-31): > 100 µM (inactive)

COC(=O)C(=O)C(C(=O)C=C(C)C)C(=O)C(=O)Nc1cccc(C(C)=O)c1 (stereo not given)
GI50 (ACHN): > 100 µM (inactive) | GI50 (CAKI-1): > 100 µM (inactive) | GI50 (CCRF-CEM): > 100 µM (inactive) | GI50 (HCT-15): > 100 µM | GI50 (HL-60): > 100 µM (inactive) | GI50 (K562): > 100 µM (inactive) | GI50 (NCI-H460): > 100 µM (inactive) | GI50 (NCI-H522): > 100 µM (inactive) | GI50 (SF-295): > 100 µM (inactive) | GI50 (SF-539): > 100 µM (inactive) | GI50 (SK-MEL-2): > 100 µM (inactive) | GI50 (SW-620): > 100 µM (inactive) | GI50 (U-251): > 100 µM (inactive) | GI50 (UACC-257): > 100 µM (inactive) | GI50 (UO-31): > 100 µM (inactive)

Cc1ccc(S(=O)(=O)NC(C)C(=O)O)cc1 (stereo not given)
GI50 (ACHN): > 100 µM (inactive) | GI50 (CAKI-1): > 100 µM (inactive) | GI50 (HCT-15): > 100 µM | GI50 (HL-60): > 100 µM (inactive) | GI50 (HOP-92): > 100 µM (inactive) | GI50 (NCI-H460): > 100 µM (inactive) | GI50 (NCI-H522): > 100 µM (inactive) | GI50 (SF-295): > 100 µM (inactive) | GI50 (SF-539): > 100 µM (inactive) | GI50 (SK-MEL-2): > 100 µM (inactive) | GI50 (SW-620): > 100 µM (inactive) | GI50 (U-251): > 100 µM (inactive) | GI50 (UACC-257): > 100 µM (inactive) | GI50 (UO-31): > 100 µM (inactive)

Cc1c(/C=N/NS(=O)(=O)c2ccccc2)no[n+]1[O-]
GI50 (CAKI-1): > 100 µM (inactive) | GI50 (CCRF-CEM): > 100 µM (inactive) | GI50 (HCT-15): > 100 µM | GI50 (HL-60): > 100 µM (inactive) | GI50 (HOP-92): > 100 µM (inactive) | GI50 (K562): > 100 µM (inactive) | GI50 (NCI-H522): > 100 µM (inactive) | GI50 (SF-295): > 100 µM (inactive) | GI50 (SF-539): > 100 µM (inactive) | GI50 (SK-MEL-2): > 100 µM (inactive) | GI50 (SW-620): > 100 µM (inactive) | GI50 (U-251): > 100 µM (inactive) | GI50 (UO-31): 2.92 µM (inactive)

CC(CCCOC(c1ccccc1)(c1ccccc1)c1ccccc1)OC(=O)Nc1cc([N+](=O)[O-])cc([N+](=O)[O-])c1 (stereo not given)
GI50 (ACHN): 27.7 µM (inactive) | GI50 (CAKI-1): 18.5 µM (inactive) | GI50 (CCRF-CEM): 32.4 µM (inactive) | GI50 (HCT-15): 32.4 µM | GI50 (HL-60): 31.6 µM (inactive) | GI50 (K562): 32.1 µM (inactive) | GI50 (NCI-H460): 24.5 µM (inactive) | GI50 (NCI-H522): 23.7 µM (inactive) | GI50 (SF-295): 27 µM (inactive) | GI50 (SF-539): 38 µM (inactive) | GI50 (SK-MEL-2): 29.4 µM (inactive) | GI50 (SW-620): 33.5 µM (inactive) | GI50 (U-251): 36.9 µM (inactive) | GI50 (UACC-257): 24.3 µM (inactive) | GI50 (UO-31): 49 µM (inactive)

FC(F)(F)C12C34C=CC5(CCC6(C=CC1(CC3)O6)C52C(F)(F)F)O4 (stereo not given)
GI50 (ACHN): > 100 µM (inactive) | GI50 (CAKI-1): > 100 µM (inactive) | GI50 (CCRF-CEM): > 100 µM (inactive) | GI50 (HL-60): > 100 µM (inactive) | GI50 (HOP-92): > 100 µM (inactive) | GI50 (K562): > 100 µM (inactive) | GI50 (NCI-H460): > 100 µM (inactive) | GI50 (NCI-H522): > 100 µM (inactive) | GI50 (SF-295): > 100 µM (inactive) | GI50 (SF-539): > 100 µM (inactive) | GI50 (SK-MEL-2): > 100 µM (inactive) | GI50 (SW-620): > 100 µM (inactive) | GI50 (U-251): > 100 µM (inactive) | GI50 (UACC-257): > 100 µM (inactive)

Cn1c(N)[n+](C(=O)OCc2ccccc2)c(=O)c2c1ncn2C(=O)OCc1ccccc1
GI50 (ACHN): 24.4 µM (inactive) | GI50 (CAKI-1): 53 µM (inactive) | GI50 (CCRF-CEM): > 100 µM (inactive) | GI50 (HCT-15): > 100 µM | GI50 (HL-60): > 100 µM (inactive) | GI50 (K562): > 100 µM (inactive) | GI50 (NCI-H460): > 100 µM (inactive) | GI50 (NCI-H522): 30.9 µM (inactive) | GI50 (SF-295): 49.5 µM (inactive) | GI50 (SK-MEL-2): > 100 µM (inactive) | GI50 (SW-620): > 100 µM (inactive) | GI50 (U-251): 9.82 µM (inactive) | GI50 (UACC-257): > 100 µM (inactive) | GI50 (UO-31): 14.4 µM (inactive)

CC(=O)OC[C@]1(C)CCCC2(C)C1CCC1C=C(C)[C@H]3CCC12C3 (stereo not given in full)
GI50 (ACHN): > 100 µM (inactive) | GI50 (CAKI-1): > 100 µM (inactive) | GI50 (CCRF-CEM): > 100 µM (inactive) | GI50 (HCT-15): 48.3 µM | GI50 (HL-60): > 100 µM (inactive) | GI50 (K562): > 100 µM (inactive) | GI50 (NCI-H460): 33.7 µM (inactive) | GI50 (NCI-H522): 10.6 µM (inactive) | GI50 (SF-295): 35 µM (inactive) | GI50 (SF-539): 25.5 µM (inactive) | GI50 (SW-620): 31.6 µM (inactive) | GI50 (U-251): 39.7 µM (inactive) | GI50 (UACC-257): 61.7 µM (inactive) | GI50 (UO-31): > 100 µM (inactive)

COc1cc2ccc3c4cc(OC)c(OCc5ccccc5)cc4cnc3c2cc1OC
GI50 (ACHN): > 100 µM (inactive) | GI50 (CAKI-1): > 100 µM (inactive) | GI50 (CCRF-CEM): > 100 µM (inactive) | GI50 (K562): > 100 µM (inactive) | GI50 (NCI-H460): > 100 µM (inactive) | GI50 (NCI-H522): > 100 µM (inactive) | GI50 (SF-295): > 100 µM (inactive) | GI50 (SK-MEL-2): > 100 µM (inactive) | GI50 (SW-620): > 100 µM (inactive) | GI50 (U-251): > 100 µM (inactive) | GI50 (UACC-257): > 100 µM (inactive) | GI50 (UO-31): 70 µM (inactive)

N#C/N=C(/N)NCc1ccccc1
GI50 (ACHN): > 100 µM (inactive) | GI50 (CCRF-CEM): > 100 µM (inactive) | GI50 (HCT-15): > 100 µM | GI50 (HL-60): > 100 µM (inactive) | GI50 (HOP-92): > 100 µM (inactive) | GI50 (NCI-H460): > 100 µM (inactive) | GI50 (NCI-H522): > 100 µM (inactive) | GI50 (SF-295): > 100 µM (inactive) | GI50 (SF-539): > 100 µM (inactive) | GI50 (SK-MEL-2): > 100 µM (inactive) | GI50 (U-251): > 100 µM (inactive) | GI50 (UACC-257): > 100 µM (inactive) | GI50 (UO-31): > 100 µM (inactive)
